The structures appear in SMILES notation. Converted amounts (≈) assume the structure as drawn.

Data on ten compounds can be found in patent publication US4091006A, “Esters of 3-hydroxyindone compounds” (priority 1975, dated 1978).

Data set [1] has as its system adults and nymphal stages of the two-spotted mite. The experiment in a line: Mite Foliage Spray Test. Format: in vivo, Tetranychus urticae (Koch). Conditions: 4 days. An excerpt:
(§1) The test procedures were as follows:
(§2) Compositions were rated on the basis of percent kill with a rating of 1 indicating no mortality; 3 signifying an approximately 50% mortality and 5 indicating 100% mortality at the indicated dosage.

Data set [2] has as its system egg of the two-spotted mite. Briefly: Mite Ovicide Test. The format is in vivo, Tetranychus urticae (Koch). As to conditions: spray on eggs, 4 days.
Description: as §1
The plants were allowed to dry thoroughly.
as §2

For data set [3], the system named is eggs of the two-spotted mite. The experiment in a line: Fumigant toxicity, Method 1 (deposit in pie plate). The format is in vivo. Conditions: deposit approx. 160 μg per square cm, 4 days. How it is done: (§3) Two methods were used to evaluate fumigant properties:
Method 1: Fifty mg. of each compound were dissolved in 5 ml. of acetone and poured into a 20 cm. (bottom diameter) Pyrex No. 210 pie plate. The acetone was allowed to evaporate leaving a deposit of approximately 160 μg. per square cm. The plate was then placed in the bottom of a 50 pound metal lard container (about 30 cm. in diameter and 34 cm. high). Two excised bean plants, held in a 250 ml. Erlenmeyer flask containing 100 ml. of tap water and infested with eggs of the two-spotted mite, were placed in the center of the pie plate. The container was held in the insectary (temperature 80±5° F., 50±5% R. H.) for four days before mortality determinations were made.

Data set [4] deals with egg forms of the two-spotted mite. The experiment in a line: Fumigant toxicity, Method 2 (treated plants near untreated infested plants). The format is in vivo. As to conditions: 500 ppm dip, 4 days. How it is done: as §3
Method 2: Excised bean plants infested with egg forms of the two-spotted mite were dipped in an aqueous preparation (500 ppm) of the test compound. The treated plants were transferred to 250 ml. Erlenmeyer flasks containing 100 ml. of tap water. Four flasks holding treated plants were evenly spaced around a similar flask in which were placed untreated mite-infested plants so that the leaves of the treated foliage were in close proximity (1-3 inches) to the untreated plants. Four days later mortality determinations were made.

For a further data set, the system named is Mite Adults. Briefly: whole plant or invertebrate. Conditions: for Mite Adults LD95: concentration to kill 95 percent; for LC50: Tetranychus urticae, read-out: Mite Adults LD50. How it is done:
Adults and nymphal stages of the two-spotted mite (tetranychus urticae (Koch)), reared on Tendergreen bean plants at 80±5° F. and 50±5 percent relative humidity, were the test organisms. Infested leaves from a stock culture were placed on the primary leaves of two bean plants 6 to 8 inches in height, growing in a 21/2 inch clay pot. 150-200 Mites, a sufficient number for testing, transferred from the excised leaves to the fresh plants in a period of 24 hours. Following the 24 hour transfer period, the excised leaves were removed from the infested plants. The test compounds were formulated by diluting the stock suspension with water to provide suspensions containing the desired amount of test compound per million parts of final formulation. The potted plants (one pot per compound) were placed on a revolving turntable and sprayed with 100-110 milliliters of test compound formulation by use of a DeVilbis spray gun set at 40 psi. air pressure. This application, which lasted 30 seconds, was sufficient to wet the plants to run-off. As a control, 100-110 milliliters of a water solution containing acetone and emulsifier in the same concentrations as the test compound formulation, but containing no test compound, were also sprayed on infested plants. The sprayed plants were held at 80±5° F. and 50±5 percent relative humidity for 4 days, after which, a mortality count of motile forms was made. Microscopic examination for motile forms was made on the leaves of the test plants. Any individual which was capable of locomotion upon prodding was considered living.
(§4) Side by side comparison tests were conducted to determine the effectiveness of selected enol ester compounds relative to (bis(p-chlorophenyl)trichlorethanol) a miticide sold under the trademark Kelthane and ovex (p-chlorophenyl-p-chlorobenzene sulfonate) two widely used commercial miticides.

The next data set has as its system Mite Ova. The experiment in a line: whole plant or invertebrate. As to conditions: for Mite Ova LD95: concentration to kill 95 percent; for LC50: Tetranychus urticae, read-out: Mite Ova LD50. How it is done:
The test organism was the egg of the two-spotted mite (Tetranychus urticae (Koch)), as obtained from adults reared on Tendergreen bean plants under controlled conditions of 80±5° F. and 50±5 percent relative humidity. Heavily infested leaves from a stock culture were placed on the primary leaves of two bean plants 6 to 8 inches in height, growing in a 21/2 inch clay pot. Females were allowed to oviposit for a period of 48 hours and then the leaves of the infested plants were dipped in a solution containing 800 parts of tetraethyl pyrophosphate per million parts of water in order to destroy the reproductory forms and thus prevent further egg laying. […] The plants were allowed to dry thoroughly. […] The potted plants (one pot per compound) were placed on a revolving turntable and sprayed with 100-110 milliliters of test compound formulation by use of a DeVilbis spray gun set at 40 psig. air pressure. This application, which lasted 30 seconds, was sufficient to wet the plants to run-off. As a control, 100-110 milliliters of a water solution containing acetone and emulsifier in the same concentrations as the test compound formulation, but containing no test compound, were also sprayed on plants infested with eggs. The sprayed plants were held at 80±5° F. and 50±5 percent relative humidity for 4 days, after which a microscopic examination was made of unhatched (dead) and hatched (living) eggs.
as §4

A further data set relates to Bean. The experiment in a line: Phytotoxicity, bean. As to conditions: 2500 ppm, 10 days.
A further data set has as its system Corn. Briefly: Phytotoxicity, corn. As to conditions: 2500 ppm, 10 days.
A further data set concerns Tomato. Briefly: Phytotoxicity, tomato. As to conditions: 2500 ppm, 10 days.
The subject of a further data set is Cotton. The experiment in a line: Phytotoxicity, cotton. As to conditions: 2500 ppm, 10 days.
Data set [5] has as its system Perennial rye grass, crabgrass, red root pigweed, mustard. Briefly: Preliminary Herbicide Seed Germination Test. Conditions: each rated 1 (no injury) to 5 (no seedlings emerged).
Description: The thus-prepared stock suspension contained 0.5 percent by weight of compound. The test concentrations employed in the tests described hereinbelow were obtained by diluting the stock suspension with water. The test procedures were as follows:
The following seeds were used in this test:
Crabgrass -- Digitaria san-
Mustard -- Brassica pincea var.
Each of above mixtures is rolled separately in 5 gallon containers for approximately one-half hour on ball mill to insure uniform mixing of seeds and soil. For each compound four 3-inch pots are filled with soil to within 11/2 inches of top of pots. To 2 of these pots are added 70 cc. of Mixture I. To the remaining 2 pots are added 70 cc. of Mixture II. The seed-soil mixture is tamped firmly, and the pots are removed to the greenhouse and watered lightly. About 2 hours after planting, 25 milliliters of the test formulation were added to each of 2 pots for each soil-seed mixture; i.e., one replicate of each seed mixture per concentration. An equal volume of a water solution containing acetone and an emulsifier in the same concentration as the herbicidal mixture but without the candidate herbicide is also added to each of the soil-seed mixtures. These pots are used as check or control units. The test compounds are formulated by standard procedure of solution in acetone, addition of an emulsifier, and dilution with water. Tests were conducted on all compositions at low concentration (100 ppm.). Certain compositions were also tested at high concentration (1000 ppm). The pots were held in the greenhouse and watered lightly until results were taken. Ten to twelve days after application of chemical, injury is noted for each species by comparing treated vs. untreated pots. Ratings are made at both the high and the low concentrations (1000 ppm and 100 ppm) according to the following designations:
4 = few seedlings emerged and/or very severe stunting
3 = moderate reduction in stand and/or moderate stunting
2 = very slight reduction in stand and/or slight stunting
1 = no injury; seedlings appear no different with respect to stand or growth than untreated controls
Accordingly, the maximum rating for one test seed species tested at both high and low concentration is 10 and the maximum possible total preemergence rating is 40 (10 for each of the four test seed species). […] In some tests the crabgrass experiment was omitted. In these tests the maximum total rating for species tested at both high and low concentrations is 30 and 15 for species tested only at low concentrations.
The mark [6] stands for this setting: rating/maximum 40: 100 and 1000 ppm, four species, 10-12 days.
Where [7] appears, read: rating/maximum 15: 100 ppm only, crabgrass omitted.
[8] abbreviates: rating/maximum 20: 100 ppm only, four species.

Description for Bean: (§5) Experiments were also conducted to determine the phytotoxicity of representative enol ester compositions with respect to healthy fresh plants. […] The test plants were sprayed in accordance with the procedure described above for the Mite Foliage Spray Test so as to deliver approximately 100 milliliters of test solution to the leaves of each plant tested. The sprayed plants and controls were set aside for approximately 1 hour to allow the solutions to dry and were then placed in the greenhouse. After 10 days the plants were visually inspected to determine the extent of foliage injury. A rating of 1 indicates no perceptible injury; 5 indicates the plant was dead and ratings of 2, 3 and 4 indicate intermediate degrees of injury based upon the number and extent to which leaves were injured.
Description for Corn: as §5
Description for Cotton: as §5
Description for Tomato: as §5

Regarding `CCCCC(CC)C(=O)OC1=C(c2c(C)cc(C)cc2C)C(=O)c2ccccc21` (stereo not drawn) [2-(2',4',6'-Trimethylphenyl)-3-(2-ethylhexanoyloxy)indone], the “Mite Adult rating” value in [1] is reported as 5 (100% mortality). For the same compound, the “Mite Ova rating” value in data set [2] was 5 (100% mortality). Also, the “Fumigant Toxicity Method 1” value in data set [3] is 1. In addition, the “Fumigant Toxicity Method 2” value in data set [4] is listed as 1. In the data set on Mite Adults, the “Mite Adults LD95” value is 230 ppm. In addition, the “Mite Ova LD95” value in the data set with Mite Ova worked out at 6 ppm. Further, the “Phytotoxicity Rating, Bean” value in the data set with Bean is 2. For the same compound, in the data set with Corn, the “Phytotoxicity Rating, Corn” value turned out to be 1. For the same compound, the “Phytotoxicity Rating, Tomato” value in the data set with Tomato amounted to 1. Besides, the “Phytotoxicity Rating, Cotton” value in the data set on Cotton was 1. For the same compound, the “Herbicide (total preemergence rating)” value in data set [5] (setting [6]) is reported as 29/40.

Regarding `Cc1cc(C)c(C2=C(OC(=O)C3CC4C=CC3C4)c3ccccc3C2=O)c(C)c1` (stereo not drawn) [2-(2',4',6'-Trimethylphenyl)-3-(endo-exonorborn-5-en-2-carbonyloxy)indone], the “Mite Adult rating” value in data set [1] is 5 (100% mortality). For the same compound, the “Mite Ova rating” value in [2] is listed as 5 (100% mortality). For the same compound, in [3], the “Fumigant Toxicity Method 1” value worked out at 1. Also, the “Fumigant Toxicity Method 2” value in data set [4] turned out to be 1. In the data set with Bean, the “Phytotoxicity Rating, Bean” value is recorded as 1. The “Phytotoxicity Rating, Corn” value with Corn is reported as 1. In addition, the “Phytotoxicity Rating, Tomato” value in the data set on Tomato came to 1. The “Phytotoxicity Rating, Cotton” value in the data set with Cotton turned out to be 2. Moreover, the “Herbicide (total preemergence rating)” value in data set [5] (setting [7]) is listed as 11/15.

Take `Cc1cc(C)c(C2=C(OC(=O)C(C)C)c3ccccc3C2=O)c(C)c1` [2-(2',4',6'-Trimethylphenyl)-3-(isobutyryloxy)indone]: in data set [1], the “Mite Adult rating” value was 5 (100% mortality). Besides, in data set [2], the “Mite Ova rating” value is given as 5 (100% mortality). Further, the “Fumigant Toxicity Method 1” value in [3] is on record as 5 (80-100% control). Besides, the “Fumigant Toxicity Method 2” value in data set [4] is 5 (80-100% control). Besides, in the data set on Bean, the “Phytotoxicity Rating, Bean” value is on record as 1. The “Phytotoxicity Rating, Corn” value in the data set with Corn is listed as 4. Also, the “Phytotoxicity Rating, Tomato” value with Tomato is on record as 2. Moreover, the “Phytotoxicity Rating, Cotton” value in the data set on Cotton was determined as 2. Besides, the “Herbicide (total preemergence rating)” value in [5] (setting [6]) is 37/40.

`COCC(=O)OC1=C(c2c(C)cc(C)cc2C)C(=O)c2ccccc21` [2-(2',4',6'-Trimethylphenyl)-3-(methoxyacetoxy)indone]: the “Mite Adult rating” value in data set [1] was 5 (100% mortality). In addition, in data set [2], the “Mite Ova rating” value is on record as 5 (100% mortality). For the same compound, in [3], the “Fumigant Toxicity Method 1” value is listed as 1. For the same compound, the “Fumigant Toxicity Method 2” value in data set [4] was found to be 1. For the same compound, the “Phytotoxicity Rating, Bean” value in the data set with Bean is 1. Moreover, in the data set on Corn, the “Phytotoxicity Rating, Corn” value came out at 1. In the data set with Tomato, the “Phytotoxicity Rating, Tomato” value is reported as 1. Also, the “Phytotoxicity Rating, Cotton” value in the data set on Cotton amounted to 1. Also, the “Herbicide (total preemergence rating)” value in data set [5] (setting [7]) was 15/15.

Take `CCCCCCCCCCCCCCCCCC(=O)OC1=C(c2c(C)cc(C)cc2C)C(=O)c2ccccc21` [2-(2',4',6'-Trimethylphenyl)-3-(octadecanoyloxy)indone]: in data set [1], the “Mite Adult rating” value is 5 (100% mortality). The “Mite Ova rating” value in data set [2] is on record as 5 (100% mortality). In addition, the “Fumigant Toxicity Method 1” value in [3] is on record as 1. The “Fumigant Toxicity Method 2” value in data set [4] is reported as 1. Also, the “Phytotoxicity Rating, Bean” value in the data set with Bean turned out to be 1. Also, in the data set with Corn, the “Phytotoxicity Rating, Corn” value is on record as 1. Besides, the “Phytotoxicity Rating, Tomato” value with Tomato came out at 1. The “Phytotoxicity Rating, Cotton” value with Cotton was found to be 1. Moreover, the “Herbicide (total preemergence rating)” value in data set [5] (setting [8]) is reported as 19/20.

For `CCCCCCCCSC(=O)OC1=C(c2c(C)cc(C)cc2C)C(=O)c2ccccc21` [2-(2',4',6'-Trimethylphenyl)-3-(octylthiocarbonyloxy)indone], the “Mite Adult rating” value in data set [1] is reported as 5 (100% mortality). Moreover, the “Mite Ova rating” value in data set [2] is 5 (100% mortality). In data set [3], the “Fumigant Toxicity Method 1” value is 1. Moreover, in data set [4], the “Fumigant Toxicity Method 2” value is on record as 1. In the data set on Bean, the “Phytotoxicity Rating, Bean” value was found to be 1. Further, the “Phytotoxicity Rating, Corn” value in the data set on Corn came out at 1. Further, the “Phytotoxicity Rating, Tomato” value in the data set on Tomato turned out to be 1. Moreover, in the data set on Cotton, the “Phytotoxicity Rating, Cotton” value is on record as 1. Moreover, the “Herbicide (total preemergence rating)” value in [5] (setting [7]) was 11/15.

For `CCC(=O)OC1=C(c2c(C)cc(C)cc2C)C(=O)c2ccccc21` [2-(2',4',6'-Trimethylphenyl)-3-(propionyloxy)indone], the “Mite Adult rating” value in data set [1] is on record as 5 (100% mortality). In addition, in data set [2], the “Mite Ova rating” value was 5 (100% mortality). For the same compound, the “Fumigant Toxicity Method 1” value in data set [3] was 5 (80-100% control). Besides, the “Fumigant Toxicity Method 2” value in data set [4] is listed as 5 (80-100% control). For the same compound, the “Phytotoxicity Rating, Bean” value in the data set on Bean was 1. Besides, in the data set with Corn, the “Phytotoxicity Rating, Corn” value came to 2. Moreover, the “Phytotoxicity Rating, Tomato” value in the data set on Tomato is recorded as 2. In addition, the “Phytotoxicity Rating, Cotton” value in the data set on Cotton stood at 1. Also, the “Herbicide (total preemergence rating)” value in data set [5] (setting [6]) is listed as 32/40.

On to `CC=CCCCCCCCC(=O)OC1=C(c2c(C)cc(C)cc2C)C(=O)c2ccccc21` [2-(2',4',6'-Trimethylphenyl)-3-(undec-9-enoyloxy)indone], for which, in data set [1], the “Mite Adult rating” value is 5 (100% mortality). For the same compound, the “Mite Ova rating” value in data set [2] is reported as 5 (100% mortality). In data set [3], the “Fumigant Toxicity Method 1” value is recorded as 1. Besides, in data set [4], the “Fumigant Toxicity Method 2” value turned out to be 1. In addition, the “Phytotoxicity Rating, Bean” value with Bean came to 2. Also, the “Phytotoxicity Rating, Corn” value in the data set with Corn is on record as 2. For the same compound, in the data set on Tomato, the “Phytotoxicity Rating, Tomato” value was determined as 2. The “Phytotoxicity Rating, Cotton” value in the data set on Cotton is listed as 1. Also, the “Herbicide (total preemergence rating)” value in [5] (setting [8]) is 19/20.

With `OC(c1ccc(Cl)cc1)(c1ccc(Cl)cc1)C(Cl)(Cl)Cl` [Kelthane, bis(p-chlorophenyl)trichlorethanol], in the data set on Mite Adults, the LC50 was 20 µg/mL (≈ 54 µM) and the “Mite Adults LD95” value came out at 65 ppm. For the same compound, in the data set with Mite Ova, the LC50 was 370 µg/mL (≈ 999 µM) and the “Mite Ova LD95” value was 700 ppm.

Take `O=S(=O)(Oc1ccc(Cl)cc1)c1ccc(Cl)cc1` [Ovex, p-chlorophenyl-p-chlorobenzene sulfonate, reference compound]: the LC50 is 1000 µg/mL in the data set on Mite Adults and 200 µg/mL in the data set with Mite Ova. Besides, the “Mite Ova LD95” value in the data set with Mite Ova is given as 300 ppm.
